# Laboratory results reported in ChEMBL document CHEMBL1131743, “Structure-activity relationship for a series of 2-substituted 1,2,3,4-tetrahydro-9H-pyrido[3,4-b]indoles: potent subtype-selective inhibitors of N-methyl-D-aspartate (NMDA) receptors” (Bioorg Med Chem Lett, 1999).
# Assays:
# [1] = Antagonist activity against rat 1A/2A subtype of N-methyl-D-aspartate (NMDA) receptor was determined by electrical assay in xenopus oocytes.; type: functional, cell-based; conditions: Oocyte
# [2] = biological target: Glutamate NMDA receptor; Grin1/Grin2b (Rattus norvegicus, UniProt P35439+Q00960); assay: Antagonist activity against rat 1A/2B subtype of N-methyl-D-aspartate (NMDA) receptor in xenopus oocytes.; type: functional, cell-based, Oocyte
# Chain of Glutamate NMDA receptor; Grin1/Grin2b (Q00960 whole entry, other chains not shown): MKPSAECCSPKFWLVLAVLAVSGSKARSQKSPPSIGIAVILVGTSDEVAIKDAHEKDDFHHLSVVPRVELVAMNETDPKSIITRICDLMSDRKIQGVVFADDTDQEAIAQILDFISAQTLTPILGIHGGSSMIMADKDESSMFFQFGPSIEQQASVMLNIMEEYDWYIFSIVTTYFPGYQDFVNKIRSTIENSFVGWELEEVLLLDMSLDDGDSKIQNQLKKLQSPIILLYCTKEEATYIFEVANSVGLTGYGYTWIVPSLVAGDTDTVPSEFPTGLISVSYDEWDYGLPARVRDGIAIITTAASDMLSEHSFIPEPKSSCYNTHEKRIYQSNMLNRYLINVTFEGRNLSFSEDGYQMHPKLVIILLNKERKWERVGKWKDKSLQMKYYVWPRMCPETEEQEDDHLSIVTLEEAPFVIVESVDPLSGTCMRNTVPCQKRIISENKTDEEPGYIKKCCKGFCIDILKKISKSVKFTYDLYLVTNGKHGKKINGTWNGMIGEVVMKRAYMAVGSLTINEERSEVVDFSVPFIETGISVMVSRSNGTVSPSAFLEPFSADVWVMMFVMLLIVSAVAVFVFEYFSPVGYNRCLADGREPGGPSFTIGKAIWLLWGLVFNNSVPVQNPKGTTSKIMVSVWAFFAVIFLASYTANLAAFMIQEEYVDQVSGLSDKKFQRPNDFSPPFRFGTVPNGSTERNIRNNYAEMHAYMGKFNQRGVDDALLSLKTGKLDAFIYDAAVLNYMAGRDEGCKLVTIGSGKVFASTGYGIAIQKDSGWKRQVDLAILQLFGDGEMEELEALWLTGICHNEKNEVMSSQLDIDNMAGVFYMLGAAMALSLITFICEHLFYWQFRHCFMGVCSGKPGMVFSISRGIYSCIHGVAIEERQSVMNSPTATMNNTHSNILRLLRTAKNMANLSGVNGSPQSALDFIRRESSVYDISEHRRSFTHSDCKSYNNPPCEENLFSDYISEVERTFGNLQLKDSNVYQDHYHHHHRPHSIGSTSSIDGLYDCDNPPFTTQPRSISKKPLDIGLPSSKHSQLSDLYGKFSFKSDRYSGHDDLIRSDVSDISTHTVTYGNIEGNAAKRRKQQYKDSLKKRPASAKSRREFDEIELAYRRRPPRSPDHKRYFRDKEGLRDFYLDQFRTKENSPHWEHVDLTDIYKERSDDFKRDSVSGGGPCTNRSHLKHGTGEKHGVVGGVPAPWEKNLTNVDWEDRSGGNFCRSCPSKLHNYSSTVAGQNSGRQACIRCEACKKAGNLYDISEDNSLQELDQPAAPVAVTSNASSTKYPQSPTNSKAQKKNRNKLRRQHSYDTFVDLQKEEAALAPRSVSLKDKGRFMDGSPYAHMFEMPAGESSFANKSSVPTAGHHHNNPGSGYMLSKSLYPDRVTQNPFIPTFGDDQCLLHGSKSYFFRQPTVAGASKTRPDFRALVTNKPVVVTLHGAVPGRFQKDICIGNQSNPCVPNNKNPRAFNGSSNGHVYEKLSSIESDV
# [3] = Antagonist activity against rat 1A/2C subtype of N-methyl-D-aspartate (NMDA) receptor was determined by electrical assay in xenopus oocytes.; type: functional, cell-based; conditions: Oocyte
SMILES,IC50 [1],IC50 [2],IC50 [3]
c1ccc(CCCCN2CCc3c([nH]c4ccccc34)C2)cc1,68 µM,3.3 µM,65 µM
Oc1ccc(CCCCN2CCc3c([nH]c4ccccc34)C2)cc1,58 µM,0.56 µM,150 µM
Oc1ccc2[nH]c3c(c2c1)CCN(CCCCc1ccccc1)C3,97 µM,0.14 µM,180 µM
Oc1ccc(CCN2CCc3c([nH]c4ccccc34)C2)cc1,74 µM,3.8 µM,140 µM
Oc1ccc(CCCN2CCc3c([nH]c4ccccc34)C2)cc1,42 µM,0.087 µM,170 µM
Oc1ccc(CCCNCCCCc2ccccc2)cc1,–,0.02 µM,–
COc1ccc2[nH]c3c(c2c1)CCN(CCCCc1ccccc1)C3,110 µM,14 µM,132 µM
Oc1ccc2c3c([nH]c2c1)CN(CCCCc1ccccc1)CC3,57 µM,0.05 µM,67 µM
